# Experimental data published in US7166617B2, “Cyclic amide derivatives” (Mitsubishi Pharma Corporation, priority 2000, dated 2007).
# Structures can show the parent of a compound that is named as a salt.
# Biological target: T1, sigma 2 receptor (Rattus norvegicus, UniProt Q5U3Y7)
# T1 construct: A crude P2 membrane fraction was prepared from livers of male rats (Sprague-Dawley rats); from tissue; host or cells: rat liver (male Sprague-Dawley), crude P2 membrane fraction
# T1 sequence (Q5U3Y7 1-176): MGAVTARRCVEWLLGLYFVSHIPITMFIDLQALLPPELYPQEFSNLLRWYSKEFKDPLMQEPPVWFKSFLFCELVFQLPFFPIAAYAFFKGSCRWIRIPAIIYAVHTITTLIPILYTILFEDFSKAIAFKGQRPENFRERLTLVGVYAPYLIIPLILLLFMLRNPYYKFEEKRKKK
# Test: Sigma 2-selective receptor binding inhibition test ([3H]-DTG, rat liver P2 membrane fraction)
# Details: [3H]-DTG 1 nM, 500 nM pentazocine, P2 fraction of livers of male Sprague-Dawley rats, 25° C., 2 hours
# Protocol: Sigma Binding Site-Binding Inhibition Test
# A crude P2 membrane fraction was prepared from livers of male rats (Sprague-Dawley rats) according to a method described in the literature (X. He, et al., J. Med. Chem., 36, pp. 566–571, 1993). In the presence of 500 nM pentazocine and a control compound at various concentrations (haloperidol, 10^−10 to 10^−6 M) or a test ligand at various concentrations (10^−10 to 10^−5 M) together with a radioactive ligand, the P2 fraction (0.4 ml) was incubated in 50 mM Tris-HCl (pH 7.4, final volume: 0.5 ml) at 25° C. for 2 hours. The reaction mixture was rapidly filtered on a Brandel cell harvester using Whatman GF/B filter paper, which was immersed beforehand in 0.5% polyethyleneimine for 1 hour, to stop the reaction. The filter paper was washed 4 times with the ice cooled incubation buffer. The non-specific results were evaluated by using 1 μM haloperidol, and the scintillation analysis and the curve analysis were performed as described above.
row,Ki,Compound
1,10 nM,"COc1ccccc1CCN1CCC(CN2Cc3ccccc3C2=O)CC1 [Example 26, 2-[[1-[2-(2-Methoxyphenyl)ethyl]piperidin-4-yl]methyl]isoindolin-1-one hydrochloride]"
2,22 nM,"O=C(CCN1CCC(CN2Cc3ccccc3C2=O)CC1)c1ccccc1 [Example 30, 2-[[1-[3-Phenyl-3-oxopropyl]piperidin-4-yl]methyl]isoindolin-1-one hydrochloride]"
3,6.6 nM,"O=C(CN1CCC(CN2Cc3ccccc3C2=O)CC1)c1ccccc1 [Example 13, 2-[[1-(2-Phenyl-2-oxoethyl)piperidin-4-yl]methyl]isoindolin-1-one hydrochloride]"
4,7.8 nM,"O=C(CN1CCC(CN2CCc3ccccc3C2=O)CC1)c1ccc(F)cc1 [Example 137, 2-[[1-[2-(4-Fluorophenyl)-2-oxoethyl]piperidin-4-yl]methyl]-3,4-dihydroisoquinolin-1(2H)-one hydrochloride]"
5,13 nM,"O=C(CN1CCC(CN2Cc3ccccc3C2=O)CC1)c1ccc(F)cc1 [Example 1, 2-[[1-[2-(4-Fluorophenyl)-2-oxoethyl]piperidin-4-yl]methyl]isoindolin-1-one hydrochloride]"
6,7.6 nM,"O=C(CN1CCC(CN2Cc3ccc(Br)cc3C2=O)CC1)c1ccc(F)cc1 [Example 4, 6-Bromo-2-[[1-[2-(4-fluorophenyl)-2-oxoethyl]piperidin-4-yl]methyl]isoindolin-1-one hydrochloride]"

# Further lines, the compound ahead of its results:
row,Compound,Ki
1,"O=C1c2ccccc2CN1CC1CCN(CCOc2ccc(F)cc2)CC1 [Example 32, 2-[[1-[2-(4-Fluorophenyloxy)ethyl]piperidin-4-yl]methyl]isoindolin-1-one hydrochloride]",2.8 nM
2,"O=C1c2ccc(Br)cc2CN1CC1CCN(CC(O)c2ccc(F)cc2)CC1 (racemic) [Example 17, (R,S)-5-Bromo-2-[[1-[2-(4-fluorophenyl)-2-hydroxyethyl]piperidin-4-yl]methyl]isoindolin-1-one hydrochloride]",24 nM
3,"O=C(CN1CCC(CN2Cc3ccc(F)cc3C2=O)CC1)c1ccc(F)cc1 [Example 7, 6-Fluoro-2-[[1-[2-(4-fluorophenyl)-2-oxoethyl]piperidin-4-yl]methyl]isoindolin-1-one hydrochloride]",16 nM
4,"O=C(CN1CCC(CN2Cc3c(F)cccc3C2=O)CC1)c1ccc(F)cc1 [Example 6, 4-Fluoro-2-[[1-[2-(4-fluorophenyl)-2-oxoethyl]piperidin-4-yl]methyl]isoindolin-1-one hydrochloride]",8.7 nM
5,"COc1ccc2c(c1)CN(CC1CCN(CC(=O)c3ccc(F)cc3)CC1)C2=O [Example 9, 5-Methyloxy-2-[[1-[2-(4-fluorophenyl)-2-oxoethyl]piperidin-4-yl]methyl]isoindolin-1-one hydrochloride]",4.9 nM
6,"O=C(CN1CCC(CN2Cc3cc(Br)ccc3C2=O)CC1)c1ccc(F)cc1 [Example 3, 5-Bromo-2-[[1-[2-(4-fluorophenyl)-2-oxoethyl]piperidin-4-yl]methyl]isoindolin-1-one hydrochloride]",7 nM
7,"O=C1c2ccccc2CN1CC1CCN(CCc2c[nH]c3ccccc23)CC1 [Example 36, 2-[[1-[2-(Indol-3-yl)ethyl]piperidin-4-yl]methyl]isoindolin-1-one ½.fumarate]",50 nM

# Same assay, conditions: test compound 10 nM; [3H]-DTG 1 nM, 500 nM pentazocine, rat liver P2 fraction
row,Compound,"Inhibitory rate against sigma 2 (%, 10 nM)"
1,"Cl.O=C(CN1CCC(CN2Cc3ccccc3C2=O)CC1)c1cccn1-c1ccccc1 [Example 95, 2-[[1-[2-[2-(1-Phenyl)pyrrolyl]-2-oxoethyl]piperidin-4-yl]methyl]-isoindolin-1-one hydrochloride]",69%
2,"CCCCn1cccc1C(=O)CN1CCC(CN2Cc3ccccc3C2=O)CC1.Cl [Example 94, 2-[[1-[2-[2-(1-Butyl)pyrrolyl]-2-oxoethyl]piperidin-4-yl]methyl]isoindolin-1-one hydrochloride]",83%

# Same assay, conditions: test compound 10 nM; [3H]-DTG 1 nM, 500 nM pentazocine, rat liver P2 fraction; read-out: Inhibitory rate against sigma 2 (%, 10 nM)
row,inhibition at 0.01 µM,Compound
1,51%,"COc1cccc(SCCN2CCC(CN3Cc4ccccc4C3=O)CC2)c1 [Example 111, 2-[[1-[2-(3-Methoxyphenylthio)ethyl]piperidin-4-yl]methyl]isoindolin-1-one fumarate]"
2,86%,"Cc1cccc(C(=O)CN2CCC(CN3Cc4ccccc4C3=O)CC2)c1 [Example 78, 2-[[1-[2-(3-Tolyl)-2-oxoethyl]piperidin-4-yl]methyl]isoindolin-1-one fumarate]"
3,59%,"O=C1c2ccccc2CN1CC1CCN(CC(=O)N2CCCc3ccccc32)CC1 [Example 48, 2-[[1-[2-(1,2,3,4-Tetrahydroquinolin-1-yl)-2-oxoethyl]piperidin-4-yl]methyl]isoindolin-1-one hydrochloride]"
4,84%,"O=C(CN1CCC(CN2Cc3ccccc3C2=O)CC1)c1cccc(Cl)c1 [Example 76, 2-[[1-[2-(3-Chlorophenyl)-2-oxoethyl]piperidin-4-yl]methyl]isoindolin-1-one fumarate]"
5,64%,"O=C1c2ccccc2CN1CC1CCN(CCSc2cccc(F)c2)CC1 [Example 113, 2-[[1-[2-(3-Fluorophenylthio)ethyl]piperidin-4-yl]methyl]isoindolin-1-one fumarate]"

# More lines, now with the values behind:
row,Compound,inhibition at 0.01 µM
1,"O=C1c2ccccc2CN1CC1CCN(CCSc2ccccc2F)CC1 [Example 112, 2-[[1-[2-(2-Fluorophenylthio)ethyl]piperidin-4-yl]methyl]isoindolin-1-one fumarate]",60%
2,"O=C1c2ccccc2CN1CC1CCN(CCOc2ccccc2)CC1 [Example 114, 2-[[1-(2-Phenoxyethyl)piperidin-4-yl]methyl]isoindolin-1-one fumarate]",51%
3,"O=C1c2ccc(Cl)cc2CN1CC1CCN(CCOc2ccc(F)cc2)CC1 [Example 178, 5-Chloro-2-[1-[2-(4-fluorophenoxy)ethyl]piperidin-4-ylmethyl]isoindolin-1-one fumarate]",50%
4,"O=C(CN1CCC(CN2Cc3ccoc3C2=O)CC1)c1ccc(F)cc1 [Example 158, 5-[[1-[2-(4-Fluorophenyl)-2-oxoethyl]piperidin-4-yl]methyl]-4,5-dihydro-6H-furo[2,3-c]pyrrol-6-one fumarate]",57%
5,"O=C1c2ccccc2CN1CC1CCN(CCSc2ccccc2)CC1 [Example 109, 2-[[1-[2-(Phenylthio)ethyl]piperidin-4-yl]methyl]isoindolin-1-one fumarate]",68%
6,"O=C1c2ccccc2CN1CC1CCN(CCc2cccc3ccccc23)CC1 [Example 97, 2-[[1-[2-(1-Naphthyl)ethyl]piperidin-4-yl]methyl]isoindolin-1-one fumarate]",59%
7,"O=C1c2ccccc2CN1CC1CCN(CCOc2ccccc2F)CC1 [Example 117, 2-[[1-[2-(2-Fluorophenoxy)ethyl]piperidin-4-yl]methyl]isoindolin-1-one fumarate]",52%
8,"O=C1c2ccccc2CN1CC1CCN(CC(O)C2CCCCC2)CC1 (centres unmarked) [Example 85, 2-[[1-(2-Cyclohexyl-2-hydroxyethyl)piperidin-4-yl]methyl]isoindolin-1-one fumarate]",59%
9,"O=C1c2ccccc2CN1CC1CCN(CCN2CCc3ccccc32)CC1 [Example 53, 2-[[1-[2-(Indolin-1-yl)ethyl]piperidin-4-yl]methyl]isoindolin-1-one fumarate]",57%
